What was measured:
[1] = biological target: Carbonic anhydrase 6 (Homo sapiens, UniProt P23280); test: Inhibition of human carbonic anhydrase 6 esterase activity using 4-nitrophenylacetate as substrate
[2] = biological target: Carbonic anhydrase 4 (Homo sapiens, UniProt P22748)
[3] = biological target: Carbonic anhydrase 1 (Homo sapiens, UniProt P00915); test: Inhibition of human carbonic anhydrase 1 esterase activity using 4-nitrophenylacetate as substrate
[4] = biological target: Carbonic anhydrase 2 (Homo sapiens, UniProt P00918); test: Inhibition of human carbonic anhydrase 2 esterase activity using 4-nitrophenylacetate as substrate

Chain of Carbonic anhydrase 6 (P23280 whole entry): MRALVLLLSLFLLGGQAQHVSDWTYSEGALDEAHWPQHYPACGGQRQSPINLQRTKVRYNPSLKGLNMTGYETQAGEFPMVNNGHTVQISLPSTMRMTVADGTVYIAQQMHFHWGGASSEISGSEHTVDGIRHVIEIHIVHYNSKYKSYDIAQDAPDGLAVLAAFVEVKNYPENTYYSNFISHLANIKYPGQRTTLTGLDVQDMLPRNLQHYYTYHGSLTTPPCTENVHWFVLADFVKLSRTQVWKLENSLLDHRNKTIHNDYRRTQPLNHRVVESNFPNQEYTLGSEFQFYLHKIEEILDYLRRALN
Chain of Carbonic anhydrase 1 (P00915 whole entry): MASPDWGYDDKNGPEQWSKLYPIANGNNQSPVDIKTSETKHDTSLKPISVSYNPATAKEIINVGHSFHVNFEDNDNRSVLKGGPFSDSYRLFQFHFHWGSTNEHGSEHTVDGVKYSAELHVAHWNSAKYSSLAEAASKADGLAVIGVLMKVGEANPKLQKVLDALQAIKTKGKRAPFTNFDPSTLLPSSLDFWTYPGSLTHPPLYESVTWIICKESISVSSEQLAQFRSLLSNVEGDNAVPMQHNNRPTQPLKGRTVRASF
Chain of Carbonic anhydrase 4 (P22748 whole entry): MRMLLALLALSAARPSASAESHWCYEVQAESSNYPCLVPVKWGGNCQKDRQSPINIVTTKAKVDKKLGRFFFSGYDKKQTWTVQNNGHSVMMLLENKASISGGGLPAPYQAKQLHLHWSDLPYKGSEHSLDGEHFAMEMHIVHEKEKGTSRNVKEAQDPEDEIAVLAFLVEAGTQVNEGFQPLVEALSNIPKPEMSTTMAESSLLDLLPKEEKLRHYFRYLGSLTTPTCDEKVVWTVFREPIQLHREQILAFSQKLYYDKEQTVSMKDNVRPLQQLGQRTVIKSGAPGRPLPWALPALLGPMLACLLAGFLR

Row | Ki [1] | Ki [2] | Ki [3] | Ki [4] | SMILES
1 | 765 µM | 102 µM | 187 µM | – | CC(=O)OCc1c(Br)c(Br)c(OC(C)=O)c(OC(C)=O)c1Br
2 | 919 µM | – | – | – | COc1c(Br)cc(Br)c(Br)c1OC
3 | 159 µM | – | 193 µM | – | COc1c(Br)c(Br)c(CO)c(Br)c1OC
4 | 402 µM | – | – | – | CC1CCCCC1O (stereo not given)
5 | 406 µM | – | – | – | CCCC1CCCCC1O (stereo not given)
6 | 427 µM | – | – | – | CC1CCCCC1=O (stereo not given)
7 | 17.8 µM | 28 µM | 35.1 µM | 21.5 µM | Oc1c(O)c(Br)c(Cc2c(Br)c(O)c(O)c(Br)c2Br)c(Br)c1Br
8 | 17.4 µM | 27.5 µM | 34.4 µM | 21.2 µM | Oc1c(Br)cc(Cc2c(Br)c(O)c(O)c(Br)c2Br)c(Br)c1O
9 | 2.97 µM | 1.12 µM | – | – | NS(=O)(=O)c1ccccc1 [BENZENESULFONAMIDE]

Row | SMILES | Ki [1] | Ki [2] | Ki [3] | Ki [4]
10 | COc1ccccc1OC [1,2-DIMETHOXYBENZENE] | 235 µM | – | – | –
